Laboratory results taken from ChEMBL document CHEMBL5723035, “Affinity Biochemical Literature for EUbOPEN Chemogenomic Library” (2024).
pIC50, pKd, pKi: −log10 of the molar value. Values belong to the molecule of their own block, whether it stands above or below them. Residues, ends and D or L forms follow the SMILES beside them. *: point of attachment. Cbz = O=C(OCc1ccccc1)*; CH2F = FC*

Experiments:
[1] = Affinity Biochemical interaction: (inhibition of enzyme activity, competitive binding assay (fluorescent substrate cleavage)) EUB0002137aAD CAPN2
Caspase-3 [2] = biological target: T1, Caspase-3 (Homo sapiens, UniProt P42574); experiment: (§1) Affinity Biochemical interaction: (enzymatic assay (fluorogenic substrate cleavage)) EUB0002178aAD CASP3; type: functional; set-up: mode of action Inhibitor, recommended concentration 1 uM
T1 sequence (P42574 whole entry): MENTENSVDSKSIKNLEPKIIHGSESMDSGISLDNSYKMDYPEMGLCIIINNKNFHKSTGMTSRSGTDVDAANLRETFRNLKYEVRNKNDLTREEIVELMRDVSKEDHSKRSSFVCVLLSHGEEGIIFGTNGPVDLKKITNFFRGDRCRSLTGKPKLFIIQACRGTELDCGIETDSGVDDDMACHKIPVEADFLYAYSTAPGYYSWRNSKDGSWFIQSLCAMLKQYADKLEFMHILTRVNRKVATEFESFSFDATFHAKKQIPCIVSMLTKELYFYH

Caspase-3 [3] = biological target: T1, Caspase-3; experiment: as §1; type: functional; set-up: mode of action Inhibitor, recommended concentration 1 uM; remark: listed apart in the source
[4] = biological target: T2, Histone acetyltransferase KAT6A (Homo sapiens, UniProt Q92794); experiment: Affinity Biochemical interaction: (AlphaScreen) EUB0001094a MYST3; type: functional; set-up: mode of action Inhibitor, recommended concentration 1 uM
T2 sequence (Q92794 whole entry): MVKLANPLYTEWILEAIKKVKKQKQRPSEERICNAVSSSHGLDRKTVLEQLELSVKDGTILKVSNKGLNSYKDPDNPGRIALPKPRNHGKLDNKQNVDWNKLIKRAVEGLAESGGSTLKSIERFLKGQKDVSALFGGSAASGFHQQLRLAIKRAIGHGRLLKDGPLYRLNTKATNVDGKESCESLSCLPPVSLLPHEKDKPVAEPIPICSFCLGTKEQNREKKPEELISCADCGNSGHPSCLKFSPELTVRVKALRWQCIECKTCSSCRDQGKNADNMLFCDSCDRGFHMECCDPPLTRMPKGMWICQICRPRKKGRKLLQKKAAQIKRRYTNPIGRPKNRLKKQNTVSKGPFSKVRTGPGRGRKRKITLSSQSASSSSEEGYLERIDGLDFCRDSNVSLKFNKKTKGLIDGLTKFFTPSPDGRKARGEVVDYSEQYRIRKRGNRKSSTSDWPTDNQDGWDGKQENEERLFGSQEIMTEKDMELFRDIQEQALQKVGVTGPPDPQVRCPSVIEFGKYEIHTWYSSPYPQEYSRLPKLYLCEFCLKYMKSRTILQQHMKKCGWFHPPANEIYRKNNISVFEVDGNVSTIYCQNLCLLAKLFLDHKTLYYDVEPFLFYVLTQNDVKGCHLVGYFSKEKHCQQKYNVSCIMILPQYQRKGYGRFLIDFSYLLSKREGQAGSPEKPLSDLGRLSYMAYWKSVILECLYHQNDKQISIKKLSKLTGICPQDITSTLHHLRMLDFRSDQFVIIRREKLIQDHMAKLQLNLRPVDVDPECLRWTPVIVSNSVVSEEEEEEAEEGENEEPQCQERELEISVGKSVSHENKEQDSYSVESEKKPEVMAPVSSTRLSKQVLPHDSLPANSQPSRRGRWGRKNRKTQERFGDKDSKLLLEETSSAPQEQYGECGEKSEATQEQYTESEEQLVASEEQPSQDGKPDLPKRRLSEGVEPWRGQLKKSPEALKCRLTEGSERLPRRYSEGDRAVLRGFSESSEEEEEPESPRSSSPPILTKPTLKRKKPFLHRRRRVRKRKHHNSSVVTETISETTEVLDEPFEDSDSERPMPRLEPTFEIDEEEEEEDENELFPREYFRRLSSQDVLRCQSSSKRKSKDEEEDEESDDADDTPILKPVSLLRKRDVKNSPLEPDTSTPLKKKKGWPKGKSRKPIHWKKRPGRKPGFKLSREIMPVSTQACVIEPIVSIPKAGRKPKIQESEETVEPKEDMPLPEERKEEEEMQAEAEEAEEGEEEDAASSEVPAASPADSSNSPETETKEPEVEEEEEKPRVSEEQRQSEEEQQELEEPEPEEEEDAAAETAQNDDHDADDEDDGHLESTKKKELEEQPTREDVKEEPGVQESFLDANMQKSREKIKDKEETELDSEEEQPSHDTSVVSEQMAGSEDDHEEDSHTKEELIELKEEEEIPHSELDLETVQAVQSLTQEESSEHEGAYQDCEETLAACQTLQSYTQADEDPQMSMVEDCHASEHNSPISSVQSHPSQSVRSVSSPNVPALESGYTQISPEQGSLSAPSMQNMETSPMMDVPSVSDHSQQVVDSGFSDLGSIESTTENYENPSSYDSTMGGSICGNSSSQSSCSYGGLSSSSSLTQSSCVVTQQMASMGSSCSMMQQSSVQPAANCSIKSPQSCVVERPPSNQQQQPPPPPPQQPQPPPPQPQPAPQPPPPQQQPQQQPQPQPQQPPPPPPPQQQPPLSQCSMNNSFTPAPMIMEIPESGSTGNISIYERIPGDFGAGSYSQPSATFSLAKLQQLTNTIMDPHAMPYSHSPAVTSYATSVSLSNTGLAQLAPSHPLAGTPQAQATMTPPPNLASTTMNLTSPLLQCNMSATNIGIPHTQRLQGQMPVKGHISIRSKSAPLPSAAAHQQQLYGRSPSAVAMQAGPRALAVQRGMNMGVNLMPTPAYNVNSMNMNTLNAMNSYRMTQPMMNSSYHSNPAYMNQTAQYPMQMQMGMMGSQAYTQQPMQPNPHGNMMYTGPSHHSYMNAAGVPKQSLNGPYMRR

[5] = biological target: T2, Histone acetyltransferase KAT6A; experiment: Affinity Biochemical interaction: (SPR) EUB0001094a MYST3; set-up: mode of action Inhibitor, recommended concentration 1 uM
[6] = biological target: T3, Histone acetyltransferase KAT7 (Homo sapiens, UniProt O95251); experiment: Affinity Biochemical interaction: (AlphaScreen) EUB0001094a MYST2; type: functional; set-up: mode of action Inhibitor, recommended concentration 1 uM
T3 sequence (O95251 whole entry): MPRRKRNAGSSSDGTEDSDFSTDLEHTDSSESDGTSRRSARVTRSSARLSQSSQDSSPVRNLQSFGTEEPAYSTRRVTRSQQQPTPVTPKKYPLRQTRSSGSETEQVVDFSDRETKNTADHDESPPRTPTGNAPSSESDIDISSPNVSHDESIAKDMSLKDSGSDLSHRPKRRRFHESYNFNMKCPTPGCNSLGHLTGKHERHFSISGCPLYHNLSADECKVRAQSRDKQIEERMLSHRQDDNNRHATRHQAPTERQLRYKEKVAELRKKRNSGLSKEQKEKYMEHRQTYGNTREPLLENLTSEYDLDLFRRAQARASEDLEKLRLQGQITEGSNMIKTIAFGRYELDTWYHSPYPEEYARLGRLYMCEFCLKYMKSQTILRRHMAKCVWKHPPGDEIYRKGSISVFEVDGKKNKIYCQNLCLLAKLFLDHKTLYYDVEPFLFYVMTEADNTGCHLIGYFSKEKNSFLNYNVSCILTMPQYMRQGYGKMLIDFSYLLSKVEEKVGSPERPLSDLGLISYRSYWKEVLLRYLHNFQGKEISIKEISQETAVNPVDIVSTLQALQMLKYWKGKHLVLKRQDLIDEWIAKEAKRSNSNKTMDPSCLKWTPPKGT

[7] = biological target: T3, Histone acetyltransferase KAT7; experiment: Affinity Biochemical interaction: (SPR) EUB0001094a MYST2; set-up: mode of action Inhibitor, recommended concentration 1 uM
Caspase-7 = Caspase-7 (Homo sapiens, UniProt P55210); experiment: Affinity Biochemical interaction: (enzymatic assay (fluorogenic substrate cleavage)) EUB0002196a CASP7; type: functional; set-up: mode of action Inhibitor, recommended concentration 1 uM
Caspase-7, sequence (P55210 24-198 limits assumed): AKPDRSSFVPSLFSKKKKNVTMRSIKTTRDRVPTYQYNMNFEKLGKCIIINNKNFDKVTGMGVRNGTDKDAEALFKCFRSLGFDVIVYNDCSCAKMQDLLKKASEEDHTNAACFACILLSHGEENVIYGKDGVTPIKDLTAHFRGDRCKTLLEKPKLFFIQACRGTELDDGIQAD
Caspase-7, sequence (P55210 207-303 limits assumed): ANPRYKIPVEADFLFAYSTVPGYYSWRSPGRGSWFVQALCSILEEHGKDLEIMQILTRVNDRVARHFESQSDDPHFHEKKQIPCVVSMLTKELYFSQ

Caspase-3 [8] = biological target: T1, Caspase-3; experiment: Affinity Biochemical interaction: (enzymatic assay (fluorogenic substrate cleavage)) EUB0002196a CASP3; type: functional; set-up: mode of action Inhibitor, recommended concentration 1 uM
Caspase-2 = Caspase-2 (Homo sapiens, UniProt P42575); experiment: Affinity Biochemical interaction: (enzymatic assay (fluorogenic substrate cleavage)) EUB0002196a CASP2; type: functional; set-up: mode of action Inhibitor, recommended concentration 1 uM
Caspase-2, sequence (P42575 170-325 limits assumed): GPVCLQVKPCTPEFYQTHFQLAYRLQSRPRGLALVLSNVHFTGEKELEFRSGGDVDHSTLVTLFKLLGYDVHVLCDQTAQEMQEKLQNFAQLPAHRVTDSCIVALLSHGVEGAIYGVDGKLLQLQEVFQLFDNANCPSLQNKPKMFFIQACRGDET
Caspase-2, sequence (P42575 334-452 limits assumed): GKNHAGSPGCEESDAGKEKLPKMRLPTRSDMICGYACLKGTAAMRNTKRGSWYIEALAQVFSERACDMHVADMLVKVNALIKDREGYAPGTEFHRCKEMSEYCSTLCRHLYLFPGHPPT

Caspase-4 = Caspase-4 (Homo sapiens, UniProt P49662); experiment: Affinity Biochemical interaction: (enzymatic assay (fluorogenic substrate cleavage)) EUB0002201a CASP4; type: functional; set-up: mode of action Inhibitor, recommended concentration 1 uM
[9] = Affinity Biochemical interaction: (enzymatic assay (fluorogenic substrate cleavage)) EUB0002134a CAPN2
[10] = biological target: T4, WD repeat-containing protein 5 (Homo sapiens, UniProt P61964); experiment: Affinity Biochemical interaction: (TR-FRET) EUB0002166aAD WDR5; type: functional; set-up: mode of action Inhibitor, recommended concentration 1 uM
[11] = biological target: T4, WD repeat-containing protein 5; experiment: Affinity Biochemical interaction: (Fluorescence polarisation anisotropy) EUB0002166aAD WDR5; type: functional; set-up: mode of action Inhibitor, recommended concentration 1 uM
Caspase-3 [12] = biological target: T1, Caspase-3; experiment: Affinity Biochemical interaction: (enzymatic assay (fluorogenic substrate cleavage)) EUB0002175aAD CASP3; type: functional; set-up: mode of action Inhibitor, recommended concentration 1 uM
[13] = biological target: Protein arginine N-methyltransferase 5 (Homo sapiens, UniProt O14744); experiment: Affinity Biochemical interaction: (SPR) EUB0002223a PRMT5; set-up: mode of action Inhibitor, recommended concentration 1 uM
[14] = biological target: Protein arginine N-methyltransferase 7 (Homo sapiens, UniProt Q9NVM4); experiment: Affinity Biochemical interaction: (SPR) EUB0002223a PRMT7; set-up: mode of action Inhibitor, recommended concentration 1 uM
Caspase-5 = Caspase-5 (Homo sapiens, UniProt P51878); experiment: Affinity Biochemical interaction: (enzymatic assay (fluorogenic substrate cleavage)) EUB0002202a CASP5; type: functional; set-up: mode of action Inhibitor, recommended concentration 1 uM
[15] = biological target: Calpain-2 catalytic subunit (Homo sapiens, UniProt P17655); experiment: Affinity Biochemical interaction: (Colorimetric assay, lysis of casein substrate and analysis of protease inhibition by reading wavelength at 595 nm) EUB0002195a CAPN2; type: functional; set-up: mode of action Inhibitor, recommended concentration 1 uM
Procathepsin L = Procathepsin L (Homo sapiens, UniProt P07711); experiment: Affinity Biochemical interaction: (Colorimetric assay, lysis of casein substrate and analysis of protease inhibition by reading wavelength at 595 nm) EUB0002195a CTSL; type: functional; set-up: mode of action Inhibitor, recommended concentration 1 uM
Procathepsin L, sequence (P07711 whole entry): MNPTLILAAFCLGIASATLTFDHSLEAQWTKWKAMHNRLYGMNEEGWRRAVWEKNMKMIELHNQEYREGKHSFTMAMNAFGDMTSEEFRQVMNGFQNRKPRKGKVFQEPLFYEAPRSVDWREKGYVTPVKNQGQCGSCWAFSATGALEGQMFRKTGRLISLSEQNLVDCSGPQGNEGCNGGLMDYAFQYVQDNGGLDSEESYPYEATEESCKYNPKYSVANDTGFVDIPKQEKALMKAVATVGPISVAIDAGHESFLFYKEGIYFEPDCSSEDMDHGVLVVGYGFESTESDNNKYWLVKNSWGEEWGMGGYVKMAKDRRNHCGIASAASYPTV

Cathepsin B = Cathepsin B (Homo sapiens, UniProt P07858); experiment: Affinity Biochemical interaction: (Colorimetric assay, lysis of casein substrate and analysis of protease inhibition by reading wavelength at 595 nm) EUB0002195a CTSB; type: functional; set-up: mode of action Inhibitor, recommended concentration 1 uM
[16] = biological target: T5, Bromodomain-containing protein 3 (Homo sapiens, UniProt Q15059); experiment: (§2) Affinity Biochemical interaction: (BROMOscan assay) EUB0002282a BRD3; set-up: mode of action Inhibitor, recommended concentration 1 uM
T5 sequence (Q15059 whole entry): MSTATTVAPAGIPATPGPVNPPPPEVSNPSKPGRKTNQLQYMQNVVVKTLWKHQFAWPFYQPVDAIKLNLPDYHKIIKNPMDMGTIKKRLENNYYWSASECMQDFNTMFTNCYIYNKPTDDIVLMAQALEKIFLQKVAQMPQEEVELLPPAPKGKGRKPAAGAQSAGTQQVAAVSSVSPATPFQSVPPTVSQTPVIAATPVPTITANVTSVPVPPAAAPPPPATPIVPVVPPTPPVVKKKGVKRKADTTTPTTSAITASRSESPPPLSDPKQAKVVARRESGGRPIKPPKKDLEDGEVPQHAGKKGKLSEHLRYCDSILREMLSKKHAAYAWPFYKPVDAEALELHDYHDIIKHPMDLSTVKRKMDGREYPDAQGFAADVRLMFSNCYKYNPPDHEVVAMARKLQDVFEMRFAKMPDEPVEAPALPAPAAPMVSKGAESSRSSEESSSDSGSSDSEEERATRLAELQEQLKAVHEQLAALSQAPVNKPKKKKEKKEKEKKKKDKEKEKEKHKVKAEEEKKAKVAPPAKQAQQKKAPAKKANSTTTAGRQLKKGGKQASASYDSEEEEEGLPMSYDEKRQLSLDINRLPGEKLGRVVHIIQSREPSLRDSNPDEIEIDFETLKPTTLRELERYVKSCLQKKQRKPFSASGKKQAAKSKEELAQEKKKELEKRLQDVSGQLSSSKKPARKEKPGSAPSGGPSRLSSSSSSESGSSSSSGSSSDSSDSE

[17] = biological target: Bromodomain testis-specific protein (Homo sapiens, UniProt Q58F21); experiment: Affinity Biochemical interaction: (BROMOscan assay) EUB0002282a BRDT; set-up: mode of action Inhibitor, recommended concentration 1 uM
[18] = biological target: T6, Bromodomain-containing protein 4 (Homo sapiens, UniProt O60885); experiment: (§3) Affinity Biochemical interaction: (AlphaLISA) EUB0002282a BRD4; type: functional; set-up: mode of action Inhibitor, recommended concentration 1 uM
[19] = biological target: T7, Bromodomain-containing protein 2 (Homo sapiens, UniProt P25440); experiment: (§4) Affinity Biochemical interaction: (BROMOscan assay) EUB0002282a BRD2; set-up: mode of action Inhibitor, recommended concentration 1 uM
T7 sequence (P25440 whole entry): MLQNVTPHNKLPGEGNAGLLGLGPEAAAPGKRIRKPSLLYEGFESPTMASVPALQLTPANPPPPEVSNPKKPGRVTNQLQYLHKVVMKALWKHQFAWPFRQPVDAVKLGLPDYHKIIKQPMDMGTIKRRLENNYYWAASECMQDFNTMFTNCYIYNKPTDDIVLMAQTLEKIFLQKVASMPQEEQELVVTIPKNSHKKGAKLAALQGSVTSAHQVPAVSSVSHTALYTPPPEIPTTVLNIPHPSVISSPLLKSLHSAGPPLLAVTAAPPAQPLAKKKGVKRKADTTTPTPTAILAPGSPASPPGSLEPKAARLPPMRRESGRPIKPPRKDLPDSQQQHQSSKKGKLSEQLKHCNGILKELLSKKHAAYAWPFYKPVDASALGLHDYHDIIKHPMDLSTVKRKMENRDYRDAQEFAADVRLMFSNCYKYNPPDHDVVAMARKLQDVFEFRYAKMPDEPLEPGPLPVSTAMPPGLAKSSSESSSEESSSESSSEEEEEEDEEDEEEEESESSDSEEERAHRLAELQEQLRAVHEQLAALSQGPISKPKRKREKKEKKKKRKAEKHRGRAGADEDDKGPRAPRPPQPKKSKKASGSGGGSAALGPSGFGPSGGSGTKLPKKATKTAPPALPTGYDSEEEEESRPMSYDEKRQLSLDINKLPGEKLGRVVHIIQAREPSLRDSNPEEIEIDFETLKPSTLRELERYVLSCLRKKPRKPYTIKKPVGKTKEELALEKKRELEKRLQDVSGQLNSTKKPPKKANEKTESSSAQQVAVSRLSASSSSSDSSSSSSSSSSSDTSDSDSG

[20] = biological target: T6, Bromodomain-containing protein 4; experiment: as §3; type: functional; set-up: mode of action Inhibitor, recommended concentration 1 uM; remark: listed apart in the source
[21] = biological target: T5, Bromodomain-containing protein 3; experiment: as §2; set-up: mode of action Inhibitor, recommended concentration 1 uM; remark: listed apart in the source
[22] = biological target: T7, Bromodomain-containing protein 2; experiment: as §4; set-up: mode of action Inhibitor, recommended concentration 1 uM; remark: listed apart in the source

pKi [1]: 7.39
Compound: CCC(NC(=O)C(CC(C)C)NC(=O)OCc1ccccc1)C(=O)C(=O)NCCCN1CCOCC1 (stereo not drawn)

pIC50 (Caspase-3 [2]): 7.87
pIC50 (Caspase-3 [3]): 6.32
Compound: CC[C@H](C)[C@H](NC(=O)[C@H](CCC(=O)O)NC(=O)[C@@H](NC(C)=O)C(C)C)C(=O)N[C@H](C=O)CC(=O)O (Ac-VEID-aldehyde)

pIC50 [4]: 7.77
pKd [5]: 8.15
pIC50 [6]: 7.52
pKd [7]: 7.47
Compound: Cc1cc(-c2ccccc2)cc(C(=O)NNS(=O)(=O)c2cccc(O)c2)c1F

pKi (Caspase-7): 8.12
pKi (Caspase-3 [8]): 9.00
pKi (Caspase-2): 8.46
Compound: CC(=O)N[C@H](C(=O)N[C@@H](CC(=O)O)C(=O)N[C@H](C(=O)N[C@@H](C)C(=O)N[C@H](C=O)CC(=O)O)C(C)C)C(C)C (Ac-VDVAD-aldehyde)

pIC50 (Caspase-4): 7.08
Compound: CC(=O)N[C@@H](CC(C)C)C(=O)N[C@@H](CCC(=O)O)C(=O)N[C@H](C(=O)N[C@H](C=O)CC(=O)O)C(C)C (Ac-LEVD-aldehyde)

pKi [9]: 6.92
Compound: CCCC(NC(=O)C(CC(C)C)NC(=O)OCc1ccccc1)C(=O)C(=O)NCc1ccccn1 (racemic)

pKi [10]: 9.97
pKi [11]: > 12.00
Compound: Cc1nc(F)ccc1-c1cc(Cn2ccn(C)c2=N)cc(C(=O)NCc2ccc(Cl)c(Cl)c2)c1

pKi (Caspase-3 [12]): 7.88
Compound: CSCC[C@H](NC(=O)[C@H](CC(=O)O)NC(C)=O)C(=O)N[C@@H](CCC(N)=O)C(=O)N[C@H](C=O)CC(=O)O (Ac-DMQD-aldehyde)

pIC50 [13]: 4.60
pIC50 [14]: 4.43
Compound: CCNC(=O)NCCSC[C@H]1O[C@@H](n2cnc3c(N)ncnc32)[C@H](O)[C@@H]1O

pIC50 (Caspase-5): 6.47
Compound: COC(=O)CC[C@H](NC(=O)[C@H](Cc1c[nH]c2ccccc12)NC(=O)OCc1ccccc1)C(=O)N[C@@H](Cc1cnc[nH]1)C(=O)N[C@@H](CC(=O)OC)C(=O)CF (Cbz-WE(OMe)HD(OMe)-CH2F)

pIC50 [15]: 7.11
pIC50 (Procathepsin L): 8.80
pIC50 (Cathepsin B): 7.82
Compound: CC(C)C[C@@H](C=O)NC(=O)[C@@H](NS(=O)(=O)c1ccc(F)cc1)C(C)C

pKd [16]: 8.54
pKd [17]: 8.51
pKd [18]: 8.12
pKd [19]: 8.28
pKd [20]: 8.19
pKd [21]: 8.64
pKd [22]: 8.49
Compound: Cc1cc(-c2ccc3nc(C4CCOCC4)n(CCOC(F)(F)F)c3c2)cn(C)c1=O
